Assay results: patent US12473295B2, “Substituted straight chain spiro derivatives” (Janssen Pharmaceutica NV, priority 2019, dated 2025)
Structures can show the parent of a compound that is named as a salt.

Columns and labels:
[1] = biological target: menin/MLL (terbium chelate-labeled menin, FITC-MBM1 peptide) (Homo sapiens (Human), UniProt O00255); assay: Menin/MLL homogenous time-resolved fluorescence (HTRF) assay; assay type: binding; settings: HTRF-30 min incubation IC50, 30 min incubation;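 note: IC50 from percent inhibition of HTRF signal, normalized between wells without competitor and wells with a saturating competitor that displaces FITC-MBM1 from His-tagged menin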
MEIS1 mRNA = MEIS1 mRNA expression assay (Quantigene Singleplex) in MOLM14 cells; assay type: cell-based, human; settings: Homo sapiens, MOLM-14, 48 h, 48 hours incubation;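 note: MEIS1 transcript levels read by probe hybridization and normalized to RPL28 mRNA, with IC50 fitted to fold changes across a rising compound concentration series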
MOLM14 cells = assay: Proliferation assay (spheroid growth, 8 days), MOLM14; assay type: cell-based, human; settings: Homo sapiens, MOLM-14, […], MOLM14, 8 days; read-out: spheroid assay_OneTime MOLM14 IC50;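 note: spheroid size read as confluence by live-cell imaging, compounds added at a range of concentrations with 0.3% DMSO, DMSO-treated wells = 0%, highest reference dose = low control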
OCI-AML3 cells = assay: Proliferation assay (spheroid growth, 8 days), OCI-AML3; assay type: cell-based, human; settings: Homo sapiens, OCI-AML-3, […], OCI-AML3, 8 days
In short: (§1)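 Cells were seeded at 200 (MOLM14, OCI-AML3) or 300 (KO-52) per well in ultra-low attachment round-bottom plates with compounds at several concentrations, 0.3% DMSO, and grown 8 days at 37° C. Spheroid confluence was imaged on day 8; IC50 came from a variable-slope fit normalized to DMSO and high-dose reference compound.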

KO-52 cells = assay: Proliferation assay (spheroid growth, 8 days), KO-52 control cell line; assay type: cell-based, human; settings: Homo sapiens, […], read-out: spheroid assay_OneTime KO-52 IC50
In short: as §1

menin/MLL (terbium chelate-labeled menin, FITC-MBM1 peptide), sequence (O00255 other isoform, or with tags, fused parts or gaps): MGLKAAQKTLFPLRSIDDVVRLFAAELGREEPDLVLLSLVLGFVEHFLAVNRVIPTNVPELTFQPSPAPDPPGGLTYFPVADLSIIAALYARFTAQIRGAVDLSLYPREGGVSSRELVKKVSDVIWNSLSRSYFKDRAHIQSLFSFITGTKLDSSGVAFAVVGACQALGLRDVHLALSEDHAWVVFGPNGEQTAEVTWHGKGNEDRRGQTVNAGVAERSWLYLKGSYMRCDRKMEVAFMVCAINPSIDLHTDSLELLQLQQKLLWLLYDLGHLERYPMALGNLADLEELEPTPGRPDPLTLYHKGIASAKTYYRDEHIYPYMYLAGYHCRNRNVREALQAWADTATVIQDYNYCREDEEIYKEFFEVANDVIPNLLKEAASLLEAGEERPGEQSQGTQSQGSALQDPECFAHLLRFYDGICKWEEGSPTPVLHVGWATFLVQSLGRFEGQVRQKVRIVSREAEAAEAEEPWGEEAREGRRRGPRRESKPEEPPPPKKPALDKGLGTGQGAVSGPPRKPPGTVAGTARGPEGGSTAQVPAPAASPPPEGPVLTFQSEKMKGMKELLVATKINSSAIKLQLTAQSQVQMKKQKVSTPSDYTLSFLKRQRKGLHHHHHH

IC50 [1] [nM] | IC50 (MEIS1 mRNA) [nM] | IC50 (MOLM14 cells) [nM] | IC50 (OCI-AML3 cells) [nM] | SMILES | IC50 (KO-52 cells) [nM]
0.24 | 38 | 48 | 90 | CCN(C(=O)c1cc(F)ccc1Oc1nncnc1N1CCC2(C1)CN([C@H](CCCNC[C@@H](O)COC)C(C)C)C2)C(C)C [Compound 281, N-ethyl-5-fluoro-2-((5-(2-((R)-6-(((R)-2-hydroxy-3-methoxypropyl)amino)-2-methylhexan-3-yl)-2,6-diazaspiro[3.4]octan-6-yl)-1,2,4-triazin-6-yl)oxy)-N-isopropylbenzamide formate] | > 15000
0.1 | 95 | 42 | 310 | CCN(C(=O)c1cc(F)ccc1Oc1nncnc1N1CCC2(C1)CN(C(CCCN)C(C)C)C2)C(C)C (stereo not shown) [Compound 3, 2-((5-(2-(6-amino-2-methylhexan-3-yl)-2,6-diazaspiro[3.4]octan-6-yl)-1,2,4-triazin-6-yl)oxy)-N-ethyl-5-fluoro-N-isopropylbenzamide formate] | > 15000
0.54 | 220 | 140 | 480 | CCN(C(=O)c1cc(F)ccc1Oc1nncnc1N1CCC2(C1)CN([C@H](CCN(C)CCO)C(C)C)C2)C(C)C (single isomer, unassigned) [Compound 270, (*R)—N-ethyl-5-fluoro-2-((5-(2-(1-((2-hydroxyethyl)(methyl)amino)-4-methylpentan-3-yl)-2,6-diazaspiro[3.4]octan-6-yl)-1,2,4-triazin-6-yl)oxy)-N-isopropylbenzamide fumarate] | > 15000
0.97 | ~840 | 690 | 2680 | CCN(C(=O)c1cc(F)ccc1Oc1nncnc1N1CCC2(C1)CN([C@H](CN)C(C)C)C2)C(C)C (single isomer, unassigned) [Compound 24, (*S)-2-((5-(2-(1-amino-3-methylbutan-2-yl)-2,6-diazaspiro[3.4]octan-6-yl)-1,2,4-triazin-6-yl)oxy)-N-ethyl-5-fluoro-N-isopropylbenzamide] | > 15000
0.066 | 29 | 36 | 71 | CCN(C(=O)c1cc(F)ccc1Oc1nncnc1N1CCC2(C1)CN([C@H](CCC(C)N(C)CCOC)C(C)C)C2)C(C)C (stereo partly drawn) [Compound 300, N-ethyl-5-fluoro-N-isopropyl-2-((5-(2-((3R)-6-((2-methoxyethyl)(methyl)amino)-2-methylheptan-3-yl)-2,6-diazaspiro[3.4]octan-6-yl)-1,2,4-triazin-6-yl)oxy)benzamide fumarate] | > 15000
0.21 | 35 | 29 | 43 | CC(C)[C@@H](CCCN(C)C[C@H](C)C(N)=O)N1CC2(CCN(c3ncnnc3Oc3ccc(F)cc3C(=O)N(C(C)C)C(C)C)C2)C1 (single isomer, unassigned) [Compound 205, 2-((5-(2-((*R)-6-(((S)-3-amino-2-methyl-3-oxopropyl)(methyl)amino)-2-methylhexan-3-yl)-2,6-diazaspiro[3.4]octan-6-yl)-1,2,4-triazin-6-yl)oxy)-5-fluoro-N,N-diisopropylbenzamide fumarate] | > 15000
0.26 | 13 | 14 | 160 | CCN(C(=O)c1cc(F)ccc1Oc1nncnc1N1CCC2(C1)CN([C@H](CCCN(C)CC(OC)OC)C(C)C)C2)C(C)C [Compound 150, (R)-2-((5-(2-(6-((2,2-dimethoxyethyl)(methyl)amino)-2-methylhexan-3-yl)-2,6-diazaspiro[3.4]octan-6-yl)-1,2,4-triazin-6-yl)oxy)-N-ethyl-5-fluoro-N-isopropylbenzamide fumarate] | 8700
0.43 | ~650 | 1020 | 2150 | CCN(C(=O)c1cc(F)ccc1Oc1nncnc1N1CCC2(C1)CN([C@H](CCCNC(=O)NC)C(C)C)C2)C(C)C [Compound 8, (R)-N-ethyl-5-fluoro-N-isopropyl-2-((5-(2-(2-methyl-6-(3-methylureido)hexan-3-yl)-2,6-diazaspiro[3.4]octan-6-yl)-1,2,4-triazin-6-yl)oxy)benzamide] | > 15000
0.38 | 230 | 200 | 640 | CCN(C(=O)c1cc(F)ccc1Oc1nncnc1N1CCC2(C1)CN([C@H](CCN(C)CCCO)C(C)C)C2)C(C)C (single isomer, unassigned) [Compound 274, (*R)—N-ethyl-5-fluoro-2-((5-(2-(1-((3-hydroxypropyl)(methyl)amino)-4-methylpentan-3-yl)-2,6-diazaspiro[3.4]octan-6-yl)-1,2,4-triazin-6-yl)oxy)-N-isopropylbenzamide] | > 15000
0.9 | 160 | 490 | 2100 | CCN(C)C[C@@H](O)C[C@H](C(C)C)N1CC2(CCN(c3ncnnc3Oc3ccc(F)cc3C(=O)N(C(C)C)C(C)C)C2)C1 (single isomer, unassigned) [Compound 391, 2-((5-(2-((3*R,5*S)-6-(ethyl(methyl)amino)-5-hydroxy-2-methylhexan-3-yl)-2,6-diazaspiro[3.4]octan-6-yl)-1,2,4-triazin-6-yl)oxy)-5-fluoro-N,N-diisopropylbenzamide fumarate] | > 15000
0.41 | 150 | 140 | 400 | CCN(C(=O)c1cc(F)ccc1Oc1nncnc1N1CCC2(C1)CN(C(CC(C)(O)CN(C)CCOC)C(C)C)C2)C(C)C (stereo not shown) [Compound 382, N-ethyl-5-fluoro-2-((5-(2-(5-hydroxy-6-((2-methoxyethyl)(methyl)amino)-2,5-dimethylhexan-3-yl)-2,6-diazaspiro[3.4]octan-6-yl)-1,2,4-triazin-6-yl)oxy)-N-isopropylbenzamide fumarate] | 11800
0.27 | 130 | 270 | 240 | CCN(C(=O)c1cc(F)ccc1Oc1nncnc1N1CCC2(C1)CN([C@H](CCCCN)C(C)C)C2)C(C)C (single isomer, unassigned) [Compound 209, (*R)-2-((5-(2-(7-amino-2-methylheptan-3-yl)-2,6-diazaspiro[3.4]octan-6-yl)-1,2,4-triazin-6-yl)oxy)-N-ethyl-5-fluoro-N-isopropylbenzamide formate] | > 15000
0.15 | 130 | 84 | 360 | CCN(C(=O)c1cc(F)ccc1Oc1nncnc1N1CCC2(C1)CN([C@H](CCCN(C)C(CO)CO)C(C)C)C2)C(C)C [Compound 256, (R)-2-((5(2-(6-((1,3-dihydroxypropan-2-yl)(methyl)amino)-2-methylhexan-3-yl)-2,6-diazaspiro[3.4]octan-6-yl)-1,2,4-triazin-6-yl)oxy)-N-ethyl-5-fluoro-N-isopropylbenzamide fumarate] | > 15000
0.18 | 91 | 220 | 410 | CCN(C(=O)c1cc(F)ccc1Oc1nncnc1N1CCC2(C1)CN([C@H](CCCN(C)C[C@@H](C)OC)C(C)C)C2)C(C)C (single isomer, unassigned) [Compound 250, N-ethyl-5-fluoro-N-isopropyl-2-((5-(2-((R)-6-(((*R)-2-methoxypropyl)(methyl)amino)-2-methylhexan-3-yl)-2,6-diazaspiro[3.4]octan-6-yl)-1,2,4-triazin-6-yl)oxy)benzamide oxalate] | 7050
0.27 | 100 | 65 | 160 | CCN(C(=O)c1cc(F)ccc1Oc1nncnc1N1CCC2(C1)CN([C@H](CCNCCCOC)C(C)C)C2)C(C)C (single isomer, unassigned) [Compound 271, (*R)—N-ethyl-5-fluoro-N-isopropyl-2-((5-(2-(1-((3-methoxypropyl)amino)-4-methylpentan-3-yl)-2,6-diazaspiro[3.4]octan-6-)-1,2,4-triazin-6-yl)oxy)benzamide] | > 15000
0.053 | ~8.2 | 7 | 46 | CCN(C(=O)c1cc(F)ccc1Oc1nncnc1N1CCC2(C1)CN([C@H](C[C@@H](O)CN(C)CCOC)C(C)C)C2)C(C)C (single isomer, unassigned) [Compound 356, N-ethyl-5-fluoro-2-((5-(2-((3*R,5R)-5-hydroxy-6-((2-methoxyethyl)(methyl)amino)-2-methylhexan-3-yl)-2,6-diazaspiro[3.4]octan-6-yl)-1,2,4-triazin-6-yl)oxy)-N-isopropylbenzamide fumarate] | > 15000
0.49 | 62 | 110 | 170 | CCN(C(=O)c1cc(F)ccc1Oc1nncnc1N1CCC2(C1)CN([C@H](C[C@@H](O)CN(C)C(C)C)C(C)C)C2)C(C)C (single isomer, unassigned) [Compound 323, N-ethyl-5-fluoro-2-((5-(2-((3*R,5*R)-5-hydroxy-6-(isopropyl(methyl)amino)-2-methylhexan-3-yl)-2,6-diazaspiro[3.4]octan-6-yl)-1,2,4-triazin-6-yl)oxy)-N-isopropylbenzamide fumarate] | 13400
